Assay results as given in article PMC4724249 (European journal of medicinal chemistry, 2015).

How the values were obtained:
[1] = system: MRSA CBD-635 and P. aeruginosa USF-1423; test: MIC of reference antibiotics at the start of serial passage; type: cell-based; details: organism not stated in the legend of Figure 4
[2] = system: a variety of fungi and Gram-positive bacteria; details: cited from earlier work

Row | Molecule | MIC of reference antibiotic [1] [µM] | MICs [2] [µg/mL]
1 | O=C(O)c1cn(C2CC2)c2cc(N3CCNCC3)c(F)cc2c1=O [ciprofloxacin] | 30 | –
2 | CN[C@H](CC(C)C)C(=O)N[C@H]1C(=O)N[C@@H](CC(N)=O)C(=O)N[C@H]2C(=O)N[C@H]3C(=O)N[C@H](C(=O)N[C@H](C(=O)O)c4cc(O)cc(O)c4-c4cc3ccc4O)[C@H](O)c3ccc(c(Cl)c3)Oc3cc2cc(c3O[C@@H]2O[C@H](CO)[C@@H](O)[C@H](O)[C@H]2O[C@H]2C[C@](C)(N)[C@H](O)[C@H](C)O2)Oc2ccc(cc2Cl)[C@H]1O [Vancomycin] | 7 | –
3 | fusaricidin A | – | 0.78 to 3.12
